Patent US7465725B2, “Pyrimidine compounds” (Synta Pharmaceuticals Corp., priority 2001, dated 2008)

Columns and labels:
[1] = test system: DNBS-induced distal colitis; assay: Dinitrobenzene sulfonic acid-induced inflammatory bowel syndrome model rats; format: in vivo, Wistar derived rats; conditions: oral, 24 and 2 h before DNBS, then daily for 5 days; relative to vehicle+DNBS net increase
Method: Treatment of Crohn's disease in dinitrobenzene suifonic acid-induced inflammatory bowel syndrome model rats: Wistar derived male or female rats weighing 200±20 g and fasted for 24 hours were used. Distal colitis was induced by intra-colonic instillation of 2,4-dinitrobenzene sulfonic acid (DNBS, 25 mg in 0.5 mL ethanol 30%) after which air (2 mL) was gently injected through the cannula to ensure that the solution remained in the colon. A test compound and/or vehicle was administered orally 24 and 2 hours before DNBS instillation and then daily for 5 days. One control group was similarly treated with vehicle alone while the other is treated with vehicle plus DNBS. The animals were sacrificed 24 hours after the final dose of test compound administration and each colon was removed and weighed. Colon-to-body weight ratio was then calculated for each animal according to the formula: Colon (g)/BW×100. The “Net” increase in ratio of Vehicle-control+DNBS group relative to Vehicle-control group was used as a base for comparison with test substance treated groups and expressed as “% Deduction.” Pyriridine compounds of this invention (e.g., Compound 12) reproducibly had about 30% deduction. A 30% or more reduction in colon-to-body weight ratio, relative to the vehicle treated eontrol group, was considered significant.

[2] = test system: CD4+ CD45Rbhigh T cell-reconstituted colitis; assay: CD4+ CD45Rbhigh T cell-reconstituted SCID colitis model mice; format: in vivo, C.B-17 SCID mice
Method: Treatment of Crohn's disease in CD4^+ CD45Rb^high T cell-reconstituted SCID colitis model mice: Spleen cells were prepared from normal female BALB/c mice. For cell purification, the following anti-mouse antibodies were used to label non-CD4^+ T cells: B220 (RA3-6B2), CD11b (M1/70), and CD8α (53-6.72). All antibodies were obtained from BioSource (Camarillo, Calif.). M450 anti-rat IgG-coated magnetic beads (Dynal, Oslo, Norway) were used to bind the antibodies and negative selection was accomplished using an MPC-1 magnetic concentrator. The enriched CD4^+ cells were then labeled for cell sorting with FITC-conjugated CD45RB (16A, Pharmingen, San Diego, Calif.) and PE-conjugated CD4 (CT-CD4, Caltag, Burlingame, Calif.). CD4^+ CD45Rb^high cells were operationally defined as the upper 40% of CD45Rb-staining CD4^+ cells and sorted under sterile conditions by flow cytometry. Harvested cells were resuspended at 4×10^6/mL in PBS and injected 100 μL intraperitoneally into female C.B-17 SCID mice. Pyrimidine compounds of this invention (e.g., Compound 12) and/or vehicle was orally administered once a day, 5 days per week, starting the day following the transfer. The transplanted SCID mice were weighed weekly and their clinical condition was monitored. Colon tissue samples were fixed in 10% buffered formalin and embedded in paraffin. Sections (4 μm) collected from ascending, transverse, and descending colon were cut and stained with hematoxylin and eosin. The severity of colitis was determined based on histological examination of the distal colon sections, whereby the extent of colonic inflammation was graded on a scale of 0-3 in each of four criteria: crypt elongation, cell infiltration, depletion of goblet cells, and the number of crypt abscesses. LP lymphocytes were isolated from freshly obtained colonic specimens. After removal of […] patches, the colon was washed in Ca/Mg-free HBSS, cut into 0.5 cm pieces and incubated twice in HBSS containing EDTA (0.75 mM), DTT (1 mM), and antibiotics (amphotericin 2.5 μg/mL, gentamicin 50 μg/mL from Sigma) at 37° C. for 15 min. Next, the tissue was-digested further in RPMI containing 0.5 mg/mL collagenase D, 0.01 mg/mL DNase I (Boehringer Manheim), and antibiotics at 37° C. LP cells were then layered on a 40-100% Percoll gradient (Pharmacia, Uppsala, Sweden), and lymphocyte-enriched populations were isolated from the cells at the 40-100% interface. To measure cytokine production, 48-well plates were coated with 10 μg/mL murine anti-CD3ε antibody (145-2C11) in carbonate buffer (PH 9.6) overnight at 4° C. […] Murine IFNγ was measured using an ELISA kit from Endogen (Cambridge, Mass.), according to the manufacturer's instructions.

[3] = test system: adjuvant arthritis; assay: Treatment of adjuvant arthritis in rats; format: in vivo, female Lewis rats; conditions: oral, once a day for 12 days, dose-dependent

Cc1cccc(C=NNc2cc(N3CCOCC3)nc(OCCc3ccccn3)n2)c1 [Compound 12, N-(3-methyl-benzylidene)-N′-[6-morpholin-4-yl-2-(2-pyridin-2-yl-ethoxy)-pyrimidin-4-yl]-hydrazine]
% Deduction (colon-to-body weight ratio) [1]: about 30%
IFNγ production by LP cells ([2]; ex vivo LP cells from treated mice, anti-CD3 and anti-CD28 antibody, 48 h, ELISA): greatly diminished the production
colonic inflammation (histological analysis), suppressive effect ([2]; oral, dose of 10 mg/kg): substantial reduction
colonic inflammation (histological analysis) ([2]; oral, once a day, 5 days per week, versus vehicle control): reduced colonic inflammation
colon-to-body weight ratio ([2]; oral, consistent with histological score): attenuation
development of polyarthritis [3]: delayed the development of polyarthritis
arthritic score ([3]; repeated four times): reduced the arthritic score
